Source: US11542251B2, “IRAK degraders and uses thereof” (DANA-FARBER CANCER INSTITUTE, INC., priority 2018, dated 2023)

What was measured:
[1] = molecular target: T1, IRAK4 (Homo sapiens (Human), UniProt Q9NWZ3); assay: Immunoblotting, IRAK4 degradation in BCWM.1 cells; format: cell-based; settings: overnight treatment
Procedure: (§1) The degradation of IRAK1 or IRAK4 proteins in BCWM.1 cells was determined by immunoblotting using BCWM.1 total cell lysates prepared following overnight treatment with IRAK1/4 degraders or inhibitors using anti-IRAK1 and anti-IRAK4 antibodies (Cell Signaling Technologies, Danvers Mass.). Anti-GAPDH antibody (Santa Cruz Biotechnology) was used for determination of protein loading.

[2] = molecular target: T2, IRAK1 (Homo sapiens (Human), UniProt P51617); assay: Immunoblotting, IRAK1 degradation in BCWM.1 cells; format: cell-based; settings: overnight treatment
T2 sequence (P51617 whole entry): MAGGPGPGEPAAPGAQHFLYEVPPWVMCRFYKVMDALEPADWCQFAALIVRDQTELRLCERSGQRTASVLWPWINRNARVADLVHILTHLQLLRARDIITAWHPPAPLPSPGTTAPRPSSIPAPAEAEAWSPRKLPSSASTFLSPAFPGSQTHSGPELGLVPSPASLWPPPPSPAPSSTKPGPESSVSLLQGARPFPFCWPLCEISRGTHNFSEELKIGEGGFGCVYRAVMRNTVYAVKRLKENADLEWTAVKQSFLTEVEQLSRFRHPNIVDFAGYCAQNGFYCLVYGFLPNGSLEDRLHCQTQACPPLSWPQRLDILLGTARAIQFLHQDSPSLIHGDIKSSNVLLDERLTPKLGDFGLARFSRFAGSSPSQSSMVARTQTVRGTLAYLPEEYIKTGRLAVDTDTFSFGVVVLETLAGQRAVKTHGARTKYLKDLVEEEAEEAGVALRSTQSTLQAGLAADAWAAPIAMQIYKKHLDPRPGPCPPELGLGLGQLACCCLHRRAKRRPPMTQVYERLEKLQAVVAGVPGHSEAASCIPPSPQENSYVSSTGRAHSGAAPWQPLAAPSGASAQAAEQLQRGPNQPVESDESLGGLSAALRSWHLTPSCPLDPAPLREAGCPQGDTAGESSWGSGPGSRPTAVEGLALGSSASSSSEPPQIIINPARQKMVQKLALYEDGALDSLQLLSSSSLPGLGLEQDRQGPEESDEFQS
Procedure: as §1

[3] = molecular target: T2, IRAK1; assay: Adapta kinase assay, IRAK1; format: biochemical; settings: Adapta kinase assay format
Description: (§2) The IRAK1 and IRAK 4 IC50 values for various compounds disclosed herein generated from an Adapta® kinase assay format, and a Z′-LYTE™ kinases assay format, respectively, are shown in Table 1.

[4] = molecular target: T1, IRAK4; assay: Z'-LYTE kinase assay, IRAK4; format: biochemical; settings: Z'-LYTE kinase assay format
Description: as §2

[5] = concentrations as high as 10 μM

T1 sequence (Q9NWZ3 whole entry): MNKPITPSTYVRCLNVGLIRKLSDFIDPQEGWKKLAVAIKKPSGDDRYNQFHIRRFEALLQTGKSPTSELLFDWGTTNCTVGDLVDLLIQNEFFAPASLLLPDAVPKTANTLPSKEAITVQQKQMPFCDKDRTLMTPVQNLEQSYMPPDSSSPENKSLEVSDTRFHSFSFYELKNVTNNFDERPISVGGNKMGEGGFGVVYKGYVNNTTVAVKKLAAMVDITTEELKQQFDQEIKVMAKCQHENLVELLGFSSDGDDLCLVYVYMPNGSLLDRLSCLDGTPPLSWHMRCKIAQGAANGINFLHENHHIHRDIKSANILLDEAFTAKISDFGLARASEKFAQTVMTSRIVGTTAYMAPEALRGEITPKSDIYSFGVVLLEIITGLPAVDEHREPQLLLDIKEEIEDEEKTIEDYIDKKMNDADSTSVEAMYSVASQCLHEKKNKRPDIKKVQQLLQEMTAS

| SMILES | IC50 [3] | IC50 [4] | other results |
| --- | --- | --- | --- |
| O=C1CCC(N2C(=O)c3cccc(NCCOCCOCCOCCOCCC(=O)N4CCC(c5cc(NC(=O)c6cccc(-c7ccn[nH]7)n6)n(-c6ccccn6)n5)CC4)c3C2=O)C(=O)N1 (stereo not drawn) [Compound 1, N-(3-(1-(1-((2-(2,6-dioxopiperidin-3-yl)-1,3-dioxoisoindolin-4-yl)amino)-3,6,9,12-tetraoxapentadecan-15-oyl)piperidin-4-yl)-1-(pyridin-2-yl)-1H-pyrazol-5-yl)-6-(1H-pyrazol-5-yl)picolinamide] | 43 nM | 16 nM | degradation of IRAK4 protein ([1]; FIG. 4): degraded; degradation of IRAK1 protein ([2]; FIG. 4): degraded |
| O=C1CCC(N2C(=O)c3cccc(NCCOCCOCCC(=O)N4CCC(c5cc(NC(=O)c6cccc(-c7ccn[nH]7)n6)n(-c6ccccn6)n5)CC4)c3C2=O)C(=O)N1 (stereo not drawn) [Compound 2] | 42 nM | 44 nM | – |
| O=C1CCC(N2Cc3c(NCCOCCOCCC(=O)N4CCC(c5cc(NC(=O)c6cccc(-c7ccn[nH]7)n6)n(-c6ccccn6)n5)CC4)cccc3C2=O)C(=O)N1 (stereo not drawn) [Compound 3, N-(3-(1-(3-(2-(2-((2-(2,6-dioxopiperidin-3-yl)-1-oxoisoindolin-4-yl)amino)ethoxy)ethoxy)propanoyl)piperidin-4-yl)-1-(pyridin-2-yl)-1H-pyrazol-5-yl)-6-(1H-pyrazol-5-yl)picolinamide] | 40 nM | 18 nM | – |
| O=C1CCC(N2C(=O)c3cccc(OCCCCCCCCC(=O)N4CCC(c5cc(NC(=O)c6cccc(-c7ccn[nH]7)n6)n(-c6ccccn6)n5)CC4)c3C2=O)C(=O)N1 (stereo not drawn) [Compound 4, N-(3-(1-(9-((2-(2,6-dioxopiperidin-3-yl)-1,3-dioxoisoindolin-4-yl)oxy)nonanoyl)piperidin-4-yl)-1-(pyridin-2-yl)-1H-pyrazol-5-yl)-6-(1H-pyrazol-5-yl)picolinamide] | 212 nM | 142 nM | – |
| CN1C(=O)CCC(N2C(=O)c3cccc(NCCOCCOCCOCCOCCC(=O)N4CCC(c5cc(NC(=O)c6cccc(-c7ccn[nH]7)n6)n(-c6ccccn6)n5)CC4)c3C2=O)C1=O (stereo not drawn) [Compound C1] | – | – | degradation of IRAK4 protein [1, 5]: no degradation; degradation of IRAK1 protein [2, 5]: no degradation |

More lines, main results first:

| IC50 [3] | IC50 [4] | SMILES | other results |
| --- | --- | --- | --- |
| 7 nM | 3 nM | CC(C)N1CCC(c2cc(NC(=O)c3cccc(-c4ccn[nH]4)n3)n(-c3ccccn3)n2)CC1 [TL1, reference compound] | effect on IRAK4 protein levels ([1]; concentration of 10 μM): no effect; effect on IRAK1 protein levels ([2]; concentration of 10 μM): no effect |
| 9 nM | > 10000 nM | C=CC(=O)Nc1cccc(C(=O)Nc2ccc(NC(=O)c3cccc(-c4ccn[nH]4)n3)cc2)c1 [TL2, reference compound] | – |
